Results on 3 compounds are retold here after ChEMBL document CHEMBL2384942, “Modulation of acridine mutagen ICR191 intercalation to DNA by methylxanthines--analysis with mathematical models” (Bioorg Med Chem, 2013).

Active and inactive are the calls of the source. The rule behind the calls is not given here.

The subject of data set [1] is Salmonella typhimurium. Briefly: Mutagenic activity in Salmonella typhimurium TA98 at 0.1 ug/plate after 4 hrs by Ames test. The data set is classed as toxicity, organism-based. The conditions noted are these: salmonella enterica subsp. enterica serovar typhimurium. On the technique in general: The Ames test uses bacterial strains that need an amino acid and regain growth without it when mutated back.

Data set [2] concerns MDBK. Briefly: Binding affinity to ICR191 in MDBK cells assessed as decrease in molar fraction of free mutagen at 1 to 12 mM by spectrophotometric analysis. The data set is classed as cell-based.
The test system of data set [3] is MDBK. The data set can be described thus: Binding affinity to ICR191 in MDBK cells assessed as decrease in formation of mutagen-chromatin complex at 1 to 12 mM by spectrophotometric analysis. The data set is classed as cell-based.
Data set [4] relates to Salmonella typhimurium. Briefly: Protective effect in Salmonella typhimurium TA98 assessed as decrease in ICR191-induced mutagenic effect at 0.05 to 2000 ug/plate after 4 hrs by Ames test. The conditions noted are these: Salmonella enterica subsp. enterica serovar Typhimurium. The format is functional, organism-based.
Data set [5] concerns Salmonella typhimurium. The data set can be described thus: Mutagenic activity in Salmonella typhimurium TA98 at 2 mg/plate after 4 hrs by Ames test. The format is toxicity, organism-based. The conditions noted are these: salmonella enterica subsp. enterica serovar typhimurium.

As to `COc1ccc2nc3cc(Cl)ccc3c(NCCCNCCCl)c2c1.Cl.Cl.Cl.Cl`, the Activity result with Salmonella typhimurium [1] is “Non-toxic”. For the compound `Cn1c(=O)c2c(ncn2C)n(C)c1=O`, the outcome in the data set on MDBK [2] and in the data set with MDBK [3] was Active. On to `CC(=O)CCCCn1c(=O)c2c(ncn2C)n(C)c1=O` [PENTOXIFYLLINE], for which the outcome with Salmonella typhimurium [4] was Active. Moreover, the Activity entry with Salmonella typhimurium [5] is given as “Non-toxic”.
